1 substance from patent publication US11291684B2, “Treatment of glaucoma” (TX MEDIC AB, priority 2017, dated 2022) can be followed below.

The test system of the assay is Schwann cells. As to the kind of experiment: Gene expression (microarray) in cultured Schwann cells. The format is cell-based, Human. Here is the method:
n=8×25 cm^2 culture flasks were set up. Two flasks were harvested on the day of treatment (24 hours after seeding). This represents the Day0 time point. From the remaining flasks, three flasks were treated with Control Medium and three were treated with Culture Medium (CM) containing dextran sulfate to give a final concentration of 0.01 mg/ml. Cells from the treated flasks were collected after 48 hours. Therefore the collected data represent (a) untreated cells (Day0 Controls and Day2 Controls) and (b) cells treated with dextran sulfate for 48 hours (Day2 dextran sulfate treated).
25 cm^2 flasks were coated by adding 2 ml per flask of a solution of 50 μg/ml poly-d-lysine in Hank's balanced salt solution (HBSS) and incubating overnight at 37° C. in the dark. Flasks were washed with cell culture water and air-dried for 30 min in the dark. Flasks were coated by adding 1 ml per flask of a solution of 25 μg/ml laminin in phosphate-buffered saline (PBS) and incubating for 2 hour at 37° C. in the dark. The laminin flasks were washed with PBS three times before plating cells.
Schwann cells growth medium was prepared by adding 10% of fetal bovine serum (FBS) to high-glucose DMEM and pre-warmed to 37° C. Cells were thawed in a 37° C. water bath for no longer than 2 min.
Cells from 12 vials were each gently transferred to a tube containing 10 ml of high-glucose DMEM medium and centrifuged at 400 relative centrifugal field (RCF) for 10 min. Pellet was resuspended in culture medium. The cells from the 12 vials were mixed and distributed equally into the previously coated 25 cm^2 flasks (n=8). Cells were incubated at 37° C. with 5% CO2. Cells were allowed to settle for 24 hours before dextran sulfate treatment.
Dextran sulfate (Tikomed AB, Sweden, WO 2016/076780) was provided at a stock concentration of 20 mg/ml and was kept in a temperature monitored refrigerator at 4° C. A fresh 100× dextran sulfate stock (1.0 mg/ml) was prepared in sterile DMEM-F12. The concentrated drug stock was sterile filtered and added to the respective culture media (19.6 ml CM and 0.4 ml dextran sulfate stock solution). The Control was made using 19.6 ml CM and 0.4 ml of DMEM-F12. Dextran sulfate and CM were added to the respective flasks (5 ml each) to reach the 0.01 mg/ml concentration of dextran sulfate in each dish with a total of 10 ml CM each.
CM was aspirated into a clean and labelled 15 ml Falcon tube. The flasks (without culture medium) were placed into the −80° C. freezer for 30 minutes. The CM in the Falcon tubes were spun at 3000×g for 5 minutes. Supernatant was removed and the small pellet was re-suspended in 2.5 ml Trizol:Water (4:1) solution at room temperature (RT, ˜22° C.).
The frozen flasks were removed one-by one from the freezer and the Trizol-Water from the appropriate tubes was moved to the flask. Flasks were left at RT for 5 minutes before the content was aspirated back into the 15 ml Falcon tube (after washing the bottom of the flask with the solution thoroughly). The flasks were inspected under the microscope to ensure full removal of cells. The collected lysates in the 15 ml Falcon tubes were placed into the −80° C. freezer.
Two aliquots of 1 ml lysate was removed from each sample and 200 μl of chloroform was added to each (0.2 ml of chloroform per 1 ml of TRIzol Reagent used during the cell lysis step) and the tube was shaken vigorously. Samples were stored at RT for 2-3 minutes and subsequently centrifuged at 12,000×g for 15 minutes at 4° C.
The RNA was precipitated from the aqueous phase by adding an equal amount of 100% ethanol. The precipitated RNA was fixed onto a Spin Cartridge, washed twice and dried. The RNA was eluted in 50 μl warm RNase-Free Water. The amount and quality of the purified RNA was measured by Nanodrop. The RNA was stored at −80° C. before transfer to Source Bioscience for Array analysis.
The expression data were downloaded into separate files for each cell line. […]

Regarding dextran sulfate, the “effect on cell adhesion and movement in Schwann cells” value (0.01 mg/ml, 48 hours) was “promoted cell detachment and movement”. The differentially expressed genes (D0 control vs D2 dextran sulfate treated, 0.01 mg/ml, 48 hours) was found to be 1244 genes and the differentially expressed genes (D2 control vs D2 dextran sulfate treated, 0.01 mg/ml, 48 hours) is recorded as 700 genes. Besides, the “increase in decorin expression, fold change” value (Schwann cells, 0.01 mg/ml, 48 hours) is 1.242. The “genes: abolished nutrient effect” value (no effect) was found to be 21, the “genes: abolished nutrient effect” value (significant downregulation) was determined as 1, the “genes: abolished nutrient effect” value (significant upregulation) is given as 13 and the “genes: abolished nutrient effect” value (total) turned out to be 35. The “genes: total” value is on record as 21 (no effect), 517 (significant downregulation), 901 (significant upregulation) and 1439 (total). In addition, the “genes: enhanced response to nutrients” value by setting is: (significant downregulation) 122; (significant upregulation) 441; (total) 563. The “genes: new effect induced by dextran sulfate” value runs as follows: (significant downregulation) 352; (significant upregulation) 74; (total) 426. For the same substance, the “genes: not different from control” value (significant downregulation) amounted to 42, the “genes: not different from control” value (significant upregulation) came out at 373 and the “genes: not different from control” value (total) is on record as 415.
